Among the targets are Melanocortin receptor 4 (Homo sapiens, UniProt P32245); Mu-type opioid receptor (Homo sapiens, UniProt P35372); D(3) dopamine receptor (Homo sapiens, UniProt P35462).
Assay [1] deals with T1, Alpha-1A adrenergic receptor (Homo sapiens, UniProt P35348).
T1 sequence (P35348 whole entry): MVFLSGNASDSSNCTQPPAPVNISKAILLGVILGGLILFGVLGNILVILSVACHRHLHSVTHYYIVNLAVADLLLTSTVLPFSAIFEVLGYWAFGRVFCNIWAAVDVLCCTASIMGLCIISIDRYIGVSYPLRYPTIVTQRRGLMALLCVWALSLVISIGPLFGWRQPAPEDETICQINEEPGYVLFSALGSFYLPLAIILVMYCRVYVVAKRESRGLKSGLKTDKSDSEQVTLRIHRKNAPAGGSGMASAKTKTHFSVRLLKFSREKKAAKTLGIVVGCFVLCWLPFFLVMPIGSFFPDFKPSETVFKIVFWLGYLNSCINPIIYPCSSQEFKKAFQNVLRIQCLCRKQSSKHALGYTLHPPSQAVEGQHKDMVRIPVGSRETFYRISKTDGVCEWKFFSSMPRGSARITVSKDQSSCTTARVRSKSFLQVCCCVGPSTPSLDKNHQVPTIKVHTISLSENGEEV

Assay [2] has as its target T2, Muscarinic acetylcholine receptor M2 (Homo sapiens, UniProt P08172).
T2 sequence (P08172 whole entry): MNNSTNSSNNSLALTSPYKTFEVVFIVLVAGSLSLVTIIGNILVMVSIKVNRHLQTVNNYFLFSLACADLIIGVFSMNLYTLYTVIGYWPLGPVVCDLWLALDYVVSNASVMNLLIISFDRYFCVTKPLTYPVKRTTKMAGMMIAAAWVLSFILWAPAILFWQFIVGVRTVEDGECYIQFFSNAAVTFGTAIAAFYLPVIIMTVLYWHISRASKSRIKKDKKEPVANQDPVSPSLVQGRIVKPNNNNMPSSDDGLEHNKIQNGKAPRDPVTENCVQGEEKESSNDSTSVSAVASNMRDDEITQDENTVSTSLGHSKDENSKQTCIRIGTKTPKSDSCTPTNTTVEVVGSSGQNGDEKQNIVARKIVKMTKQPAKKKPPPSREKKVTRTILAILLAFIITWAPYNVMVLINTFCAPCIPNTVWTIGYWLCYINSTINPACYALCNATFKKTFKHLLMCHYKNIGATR
The class given is functional, cell-based.

Assay [3] has as its target T3, Cannabinoid receptor 1 (Homo sapiens, UniProt P21554). The class given is functional, cell-based.
Assay [4] deals with T3, Cannabinoid receptor 1.
For assay [5], the target named is Gamma-aminobutyric acid receptor subunit alpha-1 (Rattus norvegicus, UniProt P62813). The class given is functional.
Gamma-aminobutyric acid receptor subunit alpha-1, sequence (P62813 whole entry): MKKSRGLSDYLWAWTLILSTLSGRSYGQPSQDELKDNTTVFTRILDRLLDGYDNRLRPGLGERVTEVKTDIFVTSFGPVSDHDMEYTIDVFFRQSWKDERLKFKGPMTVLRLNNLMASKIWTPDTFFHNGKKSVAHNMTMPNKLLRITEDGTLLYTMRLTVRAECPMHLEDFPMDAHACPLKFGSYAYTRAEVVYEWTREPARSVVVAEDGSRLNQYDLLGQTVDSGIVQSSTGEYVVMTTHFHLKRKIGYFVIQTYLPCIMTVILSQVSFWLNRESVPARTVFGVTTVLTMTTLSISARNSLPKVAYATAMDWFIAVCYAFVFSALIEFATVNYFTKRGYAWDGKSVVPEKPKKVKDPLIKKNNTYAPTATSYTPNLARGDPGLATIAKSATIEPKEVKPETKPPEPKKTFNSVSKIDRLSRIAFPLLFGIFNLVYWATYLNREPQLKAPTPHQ
For a further assay, the target named is Histamine H2 receptor (Homo sapiens, UniProt P25021). The class given is functional, cell-based.
Histamine H2 receptor, sequence (P25021 whole entry): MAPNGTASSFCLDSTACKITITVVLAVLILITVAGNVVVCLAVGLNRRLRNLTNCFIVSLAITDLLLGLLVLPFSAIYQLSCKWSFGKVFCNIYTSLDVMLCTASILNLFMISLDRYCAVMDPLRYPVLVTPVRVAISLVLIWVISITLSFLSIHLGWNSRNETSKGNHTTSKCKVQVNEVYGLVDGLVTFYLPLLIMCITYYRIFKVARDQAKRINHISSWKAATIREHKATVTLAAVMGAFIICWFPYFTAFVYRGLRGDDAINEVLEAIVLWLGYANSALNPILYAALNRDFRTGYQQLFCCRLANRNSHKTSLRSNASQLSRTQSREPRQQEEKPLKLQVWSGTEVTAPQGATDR
The target of assay [6] is 5-hydroxytryptamine receptor 2A (Homo sapiens, UniProt P28223). In kind it is functional, cell-based.
5-hydroxytryptamine receptor 2A, sequence (P28223 whole entry): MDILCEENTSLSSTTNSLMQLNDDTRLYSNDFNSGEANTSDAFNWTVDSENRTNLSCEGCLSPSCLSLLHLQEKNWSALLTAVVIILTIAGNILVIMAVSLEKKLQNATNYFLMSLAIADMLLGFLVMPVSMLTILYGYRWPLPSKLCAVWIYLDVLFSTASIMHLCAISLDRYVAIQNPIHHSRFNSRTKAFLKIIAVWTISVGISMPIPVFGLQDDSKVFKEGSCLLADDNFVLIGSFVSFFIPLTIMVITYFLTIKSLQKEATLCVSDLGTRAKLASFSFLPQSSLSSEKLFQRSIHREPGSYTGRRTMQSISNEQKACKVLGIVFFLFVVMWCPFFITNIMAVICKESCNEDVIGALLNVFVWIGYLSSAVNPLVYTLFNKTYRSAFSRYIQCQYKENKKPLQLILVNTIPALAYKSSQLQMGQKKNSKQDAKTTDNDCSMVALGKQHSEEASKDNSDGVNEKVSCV
The target of assay [7] is Sodium-dependent serotonin transporter (Homo sapiens, UniProt P31645).
Sodium-dependent serotonin transporter, sequence (P31645 whole entry): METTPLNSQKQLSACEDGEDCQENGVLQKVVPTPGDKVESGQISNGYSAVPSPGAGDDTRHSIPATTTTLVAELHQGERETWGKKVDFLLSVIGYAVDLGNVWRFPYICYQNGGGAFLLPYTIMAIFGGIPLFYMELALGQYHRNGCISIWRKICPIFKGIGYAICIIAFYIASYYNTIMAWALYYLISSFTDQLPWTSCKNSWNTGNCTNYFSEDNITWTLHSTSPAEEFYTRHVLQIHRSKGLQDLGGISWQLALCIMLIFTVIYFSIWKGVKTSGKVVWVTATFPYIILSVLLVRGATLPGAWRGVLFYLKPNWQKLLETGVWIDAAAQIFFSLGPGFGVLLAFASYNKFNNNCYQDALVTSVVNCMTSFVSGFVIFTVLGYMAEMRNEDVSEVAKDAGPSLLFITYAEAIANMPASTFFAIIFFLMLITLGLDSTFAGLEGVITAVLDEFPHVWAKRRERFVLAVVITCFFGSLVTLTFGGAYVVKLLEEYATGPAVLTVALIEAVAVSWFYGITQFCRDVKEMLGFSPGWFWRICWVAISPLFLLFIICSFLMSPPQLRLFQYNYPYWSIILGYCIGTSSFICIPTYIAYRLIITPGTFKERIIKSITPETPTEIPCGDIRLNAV
The target in assay [8] is Beta-2 adrenergic receptor (Homo sapiens, UniProt P07550). The class given is functional, cell-based.
Beta-2 adrenergic receptor, sequence (P07550 whole entry): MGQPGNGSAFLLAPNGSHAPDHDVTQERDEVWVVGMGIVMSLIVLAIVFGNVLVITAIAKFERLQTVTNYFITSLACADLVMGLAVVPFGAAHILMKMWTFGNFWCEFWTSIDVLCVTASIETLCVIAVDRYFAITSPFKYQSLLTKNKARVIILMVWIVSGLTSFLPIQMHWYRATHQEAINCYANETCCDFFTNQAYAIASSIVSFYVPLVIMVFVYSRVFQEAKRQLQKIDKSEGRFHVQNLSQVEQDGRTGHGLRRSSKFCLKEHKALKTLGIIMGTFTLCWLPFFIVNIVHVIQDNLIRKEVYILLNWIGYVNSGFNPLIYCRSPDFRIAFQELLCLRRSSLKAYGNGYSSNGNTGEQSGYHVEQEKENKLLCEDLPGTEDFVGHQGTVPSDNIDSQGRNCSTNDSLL

Molecules are shown by their SMILES. Values joined by “and” are separate entries in the source; they are usually repeats but may differ in a detail not shown here. Equal values may be shown once.
Note: assay procedure not described here.

Mu-type opioid receptor, sequence (P35372 whole entry): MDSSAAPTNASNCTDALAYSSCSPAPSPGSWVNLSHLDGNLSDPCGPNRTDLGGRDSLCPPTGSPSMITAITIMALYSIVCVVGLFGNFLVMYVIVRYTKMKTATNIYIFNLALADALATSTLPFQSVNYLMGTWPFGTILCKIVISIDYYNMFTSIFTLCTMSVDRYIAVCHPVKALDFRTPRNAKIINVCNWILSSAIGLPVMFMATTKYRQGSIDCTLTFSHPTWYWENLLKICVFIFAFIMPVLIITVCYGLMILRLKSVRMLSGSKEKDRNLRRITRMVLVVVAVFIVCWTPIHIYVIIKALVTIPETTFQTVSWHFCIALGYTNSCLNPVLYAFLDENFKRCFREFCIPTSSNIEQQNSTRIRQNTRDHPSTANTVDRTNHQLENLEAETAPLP
T3 sequence (P21554 whole entry): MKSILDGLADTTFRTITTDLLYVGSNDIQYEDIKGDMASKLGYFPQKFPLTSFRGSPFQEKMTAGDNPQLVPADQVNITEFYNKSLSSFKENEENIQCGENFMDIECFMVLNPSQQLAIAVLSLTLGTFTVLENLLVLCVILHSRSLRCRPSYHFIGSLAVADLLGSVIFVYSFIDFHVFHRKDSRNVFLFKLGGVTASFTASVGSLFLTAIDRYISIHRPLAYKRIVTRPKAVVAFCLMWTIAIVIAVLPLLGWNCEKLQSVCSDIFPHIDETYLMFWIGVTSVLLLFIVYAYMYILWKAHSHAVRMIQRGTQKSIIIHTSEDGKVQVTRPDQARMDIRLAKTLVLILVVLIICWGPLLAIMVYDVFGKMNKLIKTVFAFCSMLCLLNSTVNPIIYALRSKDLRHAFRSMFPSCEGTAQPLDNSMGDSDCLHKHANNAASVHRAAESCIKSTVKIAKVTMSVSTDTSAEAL
Melanocortin receptor 4, sequence (P32245 whole entry): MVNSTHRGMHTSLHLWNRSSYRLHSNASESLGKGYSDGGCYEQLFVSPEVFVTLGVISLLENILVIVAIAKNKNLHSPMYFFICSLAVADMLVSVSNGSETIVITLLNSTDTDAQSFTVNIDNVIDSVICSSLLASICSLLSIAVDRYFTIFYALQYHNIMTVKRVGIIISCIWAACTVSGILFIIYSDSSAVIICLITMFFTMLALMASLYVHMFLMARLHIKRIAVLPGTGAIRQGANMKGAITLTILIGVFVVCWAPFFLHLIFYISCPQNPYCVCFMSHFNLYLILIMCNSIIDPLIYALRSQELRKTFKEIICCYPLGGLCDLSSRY
D(3) dopamine receptor, sequence (P35462 whole entry): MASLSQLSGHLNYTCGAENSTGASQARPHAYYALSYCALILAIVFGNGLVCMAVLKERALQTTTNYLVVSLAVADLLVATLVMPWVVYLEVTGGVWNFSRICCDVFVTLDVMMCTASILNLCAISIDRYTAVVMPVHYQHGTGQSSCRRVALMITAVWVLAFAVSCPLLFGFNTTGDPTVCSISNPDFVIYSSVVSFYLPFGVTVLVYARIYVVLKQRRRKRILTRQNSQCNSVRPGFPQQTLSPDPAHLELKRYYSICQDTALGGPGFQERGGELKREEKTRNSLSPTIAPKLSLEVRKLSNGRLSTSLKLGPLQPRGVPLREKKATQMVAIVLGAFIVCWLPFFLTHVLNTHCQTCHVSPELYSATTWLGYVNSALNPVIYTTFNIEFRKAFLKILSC

What is called AC50 is the concentration at which the activity in the assay is half-maximal. For the compound `CC(=O)OCC(=O)[C@@]1(O)CC[C@H]2[C@@H]3CCC4=CC(=O)CC[C@]4(C)C3=CC[C@@]21C` [ANECORTAVE ACETATE], the half-maximal activity concentration (AC50) in assay [1] was above 10 µM; in assay [2], above 10 µM; at Cannabinoid receptor 1 [3] it was above 30 µM; at Cannabinoid receptor 1 [4], above 10 µM; in [5], above 10 µM; at Histamine H2 receptor it was above 10 µM. Further, the AC50 was above 10 µM in assay [6]; above 10 µM at Melanocortin receptor 4; above 10 µM in [7]; above 30 µM on Mu-type opioid receptor; above 30 µM at D(3) dopamine receptor.

Regarding `NS(=O)(=O)c1cc2c(cc1C(F)(F)F)NC(Cc1ccccc1)NS2(=O)=O` (centres undefined) [BENDROFLUMETHIAZIDE], the AC50 (in [1]; in assay [2]; on Cannabinoid receptor 1 [4]; in [5]; at Histamine H2 receptor; in assay [6]) was above 10 µM in each case. Moreover, the AC50 at Melanocortin receptor 4 was above 10 µM; in [7] it was above 30 µM; at Mu-type opioid receptor it was above 30 µM; on D(3) dopamine receptor, above 30 µM.

On to `CCCCCCNC(=O)n1cc(F)c(=O)[nH]c1=O` [CARMOFUR], for which the AC50 (in [1]; in assay [2]; on Cannabinoid receptor 1 [4]; in assay [5]; at Histamine H2 receptor; on D(3) dopamine receptor) was above 30 µM in each case.

For `COCCOC(=O)C1=C(C)NC(C)=C(C(=O)OC/C=C/c2ccccc2)C1c1cccc([N+](=O)[O-])c1` (centres undefined) [CILNIDIPINE], the AC50 (in [8]; in assay [2]; on Cannabinoid receptor 1 [3]; in assay [5]; at Histamine H2 receptor; in [6]) was above 30 µM throughout. Further, the AC50 (in assay [7]; on D(3) dopamine receptor) was above 30 µM throughout.

Turning to `Clc1ccc2c(c1)C(c1ccccc1)=NCc1nncn1-2` [ESTAZOLAM], the AC50 in assay [1] is above 10 µM; in [2], above 10 µM; at Cannabinoid receptor 1 [3] it was above 30 µM; in [5], 0.0336 µM; on Histamine H2 receptor, above 10 µM; on Melanocortin receptor 4, above 30 µM. Moreover, the AC50 (in [7]; at Mu-type opioid receptor; at D(3) dopamine receptor) was above 30 µM in each case.

For the compound `Clc1ccc(C(Cn2ccnc2)OCc2ccc(Sc3ccccc3)cc2)c(Cl)c1` (centres undefined) [FENTICONAZOLE], the AC50 was above 30 µM in [2]; above 30 µM at Cannabinoid receptor 1 [3]; 11 µM at Cannabinoid receptor 1 [4]; above 30 µM in [5]; above 30 µM at Histamine H2 receptor; 30 µM on D(3) dopamine receptor.

`Nc1nc(F)nc2c1ncn2[C@@H]1O[C@H](COP(=O)(O)O)[C@@H](O)[C@@H]1O` [FLUDARABINE PHOSPHATE]: the AC50 (in assay [2]; on Cannabinoid receptor 1 [4]; in assay [5]; at Histamine H2 receptor; in assay [6]; on Melanocortin receptor 4) was above 30 µM throughout. Besides, the AC50 (in [7]; on D(3) dopamine receptor) was above 30 µM throughout.

For `Nc1ccn([C@@H]2O[C@H](CO)[C@@H](O)C2(F)F)c(=O)n1` [GEMCITABINE], the AC50 in assay [1] was above 10 µM; in [2], above 10 µM; at Cannabinoid receptor 1 [3], above 30 µM; in assay [5], above 10 µM; on Histamine H2 receptor, above 10 µM; on Melanocortin receptor 4, above 30 µM. Also, the AC50 at Mu-type opioid receptor and on D(3) dopamine receptor was above 30 µM in each case.

As for `C#C[C@]1(O)CC[C@H]2[C@@H]3CCC4=CC(=O)CCC4=C3C=C[C@@]21CC` [GESTRINONE], the AC50 is above 30 µM in assay [8]; above 30 µM in assay [2]; above 30 µM on Cannabinoid receptor 1 [3]; 8.8 µM in assay [5]; above 30 µM on Histamine H2 receptor; above 30 µM in [6]. For the same compound, the AC50 in assay [7] was 0.033 µM; at D(3) dopamine receptor, above 30 µM.

`CC(=O)O[C@H]1C[C@@H]2CC[C@@H]3[C@H](CC[C@@]4(C)[C@H]3C[C@H]([N+]3(C)CCCCC3)[C@@H]4OC(C)=O)[C@@]2(C)C[C@@H]1[N+]1(C)CCCCC1` [PANCURONIUM]: the AC50 (in [1]; in assay [2]; at Cannabinoid receptor 1 [4]; in assay [5]; on Histamine H2 receptor; in assay [6]) was above 10 µM throughout. For the same compound, the AC50 is above 10 µM on Melanocortin receptor 4, above 10 µM in assay [7], above 30 µM at Mu-type opioid receptor and above 30 µM on D(3) dopamine receptor.

With `CC1(C)C(C=C(Cl)Cl)C1C(=O)OCc1cccc(Oc2ccccc2)c1` (centres undefined) [PERMETHRIN], the AC50 is above 10 µM in [1]; above 10 µM in assay [2]; 18.2 µM at Cannabinoid receptor 1 [4]; above 10 µM in assay [5]; above 10 µM at Histamine H2 receptor; above 10 µM in [6]. Also, the AC50 on Melanocortin receptor 4 is above 10 µM; in [7], above 10 µM; at Mu-type opioid receptor, above 30 µM; at D(3) dopamine receptor, above 30 µM.

Consider `CC(=O)c1ccc2c(c1)N(CCCN1CCC(CCO)CC1)c1ccccc1S2` [PIPERACETAZINE], for which the AC50 in assay [1] was 0.18 µM; in assay [2], above 30 µM; at Cannabinoid receptor 1 [3], above 30 µM; in assay [5], above 30 µM; on Histamine H2 receptor, above 30 µM; in assay [6], above 30 µM. The AC50 in assay [7] was 1.3 µM; on D(3) dopamine receptor it was 0.017 µM.

As to `CCCOC(C(=O)OC1CCN(C)CC1)(c1ccccc1)c1ccccc1` [PROPIVERINE], the AC50 (in [2]; on Cannabinoid receptor 1 [3]; in assay [5]; on Histamine H2 receptor; in assay [6]; in assay [7]) was above 30 µM in each case. Further, the concentration at half-maximal activity (AC50) at Mu-type opioid receptor was 0.75 µM; at D(3) dopamine receptor it was 2.5 µM.

In the case of `CC(NCCc1ccc(O)cc1)C(O)c1ccc(O)cc1` (centres undefined) [RITODRINE], the concentration at half-maximal activity (AC50) in [1] was 10 µM and 1.54 µM; in assay [2], above 30 µM; at Cannabinoid receptor 1 [4] it was above 30 µM; in assay [5] it was above 30 µM; on Histamine H2 receptor, above 30 µM; in assay [6], above 30 µM. Moreover, the AC50 at Melanocortin receptor 4 is above 10 µM; in assay [7], 16.3 µM; at Mu-type opioid receptor it was 13 µM and 9.2 µM; at D(3) dopamine receptor, above 30 µM.

`CN1CCN(c2c(F)cc3c(=O)c(C(=O)O)cn4c3c2SCC4)CC1` [RUFLOXACIN]: the AC50 (in [8]; in [2]; on Cannabinoid receptor 1 [3]; in assay [5]; at Histamine H2 receptor; in [6]) was above 30 µM throughout. The AC50 (in assay [7]; on D(3) dopamine receptor) was above 30 µM in each case.

As for `COc1c(O[C@@H]2O[C@H](CO)[C@@H](O)[C@H](O)[C@H]2O)cc2c(c1OC)-c1ccc(SC)c(=O)cc1[C@@H](NC(C)=O)CC2` [THIOCOLCHICOSIDE], the AC50 (in [8]; in assay [2]; at Cannabinoid receptor 1 [3]; in assay [5]; on Histamine H2 receptor; in [6]) was above 30 µM in each case. For the same compound, the concentration at half-maximal activity (AC50) (in assay [7]; on D(3) dopamine receptor) was above 30 µM throughout.

As to `CN1c2ccccc2C(NCCCCCCC(=O)O)c2ccc(Cl)cc2S1(=O)=O` (centres undefined) [TIANEPTINE], the concentration at half-maximal activity (AC50) (in assay [8]; in assay [2]; on Cannabinoid receptor 1 [3]; in [5]; at Histamine H2 receptor; in [6]) was above 30 µM in each case. The AC50 on Mu-type opioid receptor is above 30 µM; on D(3) dopamine receptor, 20 µM.

`Cc1cccc(N(C)C(=S)Oc2ccc3ccccc3c2)c1` [TOLNAFTATE]: the half-maximal activity concentration (AC50) was above 30 µM in assay [1]; above 10 µM in assay [2]; above 10 µM at Cannabinoid receptor 1 [4]; above 10 µM in [5]; above 30 µM at Histamine H2 receptor; above 10 µM at Melanocortin receptor 4. Moreover, the half-maximal activity concentration (AC50) at Mu-type opioid receptor and at D(3) dopamine receptor was above 30 µM each time.

In the case of `COc1ccc(C(CN(C)C)C2(O)CCCCC2)cc1` (centres undefined) [VENLAFAXINE], the AC50 in assay [8] is above 30 µM; in assay [2] it was above 10 µM; at Cannabinoid receptor 1 [4], 5.5 µM; in [5], above 10 µM; at Histamine H2 receptor, above 30 µM; at Melanocortin receptor 4, above 30 µM. Besides, the AC50 on Mu-type opioid receptor was above 30 µM.

Values taken from ChEMBL document CHEMBL5291721, “A preclinical secondary pharmacology resource illuminates target-adverse drug reaction associations of marketed drugs” (Nat Commun, 2023).
